{"source": "paper PMC7367283", "about": "“A PIP2 substitute mediates voltage sensor-pore coupling in KCNQ activation” (Communications Biology, 2020)", "molecular_target": "hERG (Homo sapiens, UniProt Q12809)", "sequence (Q12809 whole entry)": "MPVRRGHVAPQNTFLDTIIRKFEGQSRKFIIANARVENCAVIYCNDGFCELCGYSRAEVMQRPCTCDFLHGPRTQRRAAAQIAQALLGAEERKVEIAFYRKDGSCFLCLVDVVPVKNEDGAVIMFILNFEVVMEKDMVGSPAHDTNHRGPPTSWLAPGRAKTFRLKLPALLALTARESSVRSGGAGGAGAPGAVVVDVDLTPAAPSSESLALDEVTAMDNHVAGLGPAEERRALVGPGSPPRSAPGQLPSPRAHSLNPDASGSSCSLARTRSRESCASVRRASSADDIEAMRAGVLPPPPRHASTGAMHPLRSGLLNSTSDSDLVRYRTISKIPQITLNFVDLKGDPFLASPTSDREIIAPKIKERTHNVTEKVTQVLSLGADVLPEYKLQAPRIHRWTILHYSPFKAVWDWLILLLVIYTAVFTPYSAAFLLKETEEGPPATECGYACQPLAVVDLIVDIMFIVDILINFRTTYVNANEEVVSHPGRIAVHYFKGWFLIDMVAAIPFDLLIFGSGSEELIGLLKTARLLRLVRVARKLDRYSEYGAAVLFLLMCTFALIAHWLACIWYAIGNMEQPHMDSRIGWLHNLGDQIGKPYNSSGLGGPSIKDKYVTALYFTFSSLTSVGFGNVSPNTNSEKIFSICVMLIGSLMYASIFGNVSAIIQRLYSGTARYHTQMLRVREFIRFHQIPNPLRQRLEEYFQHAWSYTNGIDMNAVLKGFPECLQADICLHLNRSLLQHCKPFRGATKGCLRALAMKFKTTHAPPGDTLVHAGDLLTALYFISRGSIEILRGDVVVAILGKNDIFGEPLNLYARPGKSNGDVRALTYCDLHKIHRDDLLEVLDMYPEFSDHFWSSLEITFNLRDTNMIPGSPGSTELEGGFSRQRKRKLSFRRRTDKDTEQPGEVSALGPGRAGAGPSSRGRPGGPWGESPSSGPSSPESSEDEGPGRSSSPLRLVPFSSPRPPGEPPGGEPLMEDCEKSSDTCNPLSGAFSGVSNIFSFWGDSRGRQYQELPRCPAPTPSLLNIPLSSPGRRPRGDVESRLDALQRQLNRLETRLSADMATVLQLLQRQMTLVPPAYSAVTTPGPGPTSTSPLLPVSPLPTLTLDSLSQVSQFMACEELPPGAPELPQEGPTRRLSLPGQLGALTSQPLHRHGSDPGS", "experiment": "Two-electrode voltage clamp of hERG in Xenopus oocytes", "type": "cell-based", "details": "10 µM CP1", "description": "Since CP1 has a similar effect to PIP2 in mediating VSD-pore coupling in KCNQ channels, we tested if CP1 has effects on other ion channels that are also sensitive to PIP2 or are voltage activated and share general structural features of the VSD and the pore with KCNQ. […] On the other hand, NaV1.5 and KV4.2 are voltage-gated ion channels.\nFig. 6 Effects of CP1 on other ion channels expressed in Xenopus oocytes. a Currents of Kir1.1, CaV1.2, NaV1.5, hERG, and KV4.2 before and after application of 10 µM CP1, respectively. The voltages for holding, test, and returning pulses were Kir1.1, 0 mV, −100 to +60 mV, 0; CaV1.2, −100 mV, −100 to +60, −100 mV; NaV1.5, −100, −120 to +40 mV, −120 mV; […]; KV4.2, −80 mV, −100 mV to +80 mV, −40 mV; HCN4, −30 mV, −30 to −140 mV, −120 mV. b Current–voltage relations of Kir1.1 channel in the absence or presence of 10 µM CP1 (n = 7). c–g G–V relations of indicated channels with and without 10 µM CP1. The ΔV1/2 of G–V relations (mV) are CaV1.2, 3.38 ± 0.71 mV (c); NaV1.5, −2.26 ± 0.95 mV (d); hERG, 6.85 ± 1.81 mV (e); KV 4.2, −2.26 ± 2.88 mV (f); HCN4, 17.13 ± 1.59 mV (g).\nComplementary DNA (cDNA) encoding human KCNQ1 (UniProtKB/Swiss‐Prot under accession no. P51787), KCNQ2 (O43526), KCNQ3 (O43525), KCNE1 (P15382), Kir1.1 (P48048), hERG (Q12809), KV4.2 (Q63881), NaV1.5 (Q14524), NaV β1 (Q07699), CaV1.2 (Q13936), CaV β1a (Q02641), CaV α2/δ1 (P54289), and HCN4 (Q9Y3Q4) were subcloned into oocyte expression vectors, respectively. Site-directed mutations of the KCNQ1 channel were all produced by overlap extension polymerase chain reaction (PCR) with high-fidelity Pfu polymerase (Stratagene, CA). The presence of the desired mutation was verified by sequencing the PCR-amplified regions. All the primer sequences used in this study are available in Supplementary Table 1. The complementary RNA (cRNA) of all these channels and mutations was transcribed in vitro with the T3, T7, or SP6 polymerase mMessage mMachine kit (Invitrogen, Thermo Fisher Scientific, MO).\nThe whole-oocyte ionic currents were recorded with a GeneClamp 500B amplifier (Axon Instruments, CA) or iTEV90 amplifier (HEKA, Germany) and then sampled at 1 kHz and low-pass-filtered at 2 kHz. The Patchmaster software (HEKA, Germany) was used to acquire data. The Kir1.1 current was recorded with a high K^+ bath solution containing (in mM) 96 KCl, 4 NaCl, 1 CaCl2, 2 MgCl2, and 10 HEPES, pH 7.3–7.4. The HCN4 current was recorded in ND66 solution containing (in mM) 66 NaCl, 32 KCl, 1.8 CaCl2, 1 MgCl2, and 5 HEPES, pH 7.6. All the other potassium channels were recorded in ND96 solution. The currents of CaV1.2 channel were recorded in 40 mM Ba^2+ bath solution containing (in mM) 40 Ba(OH)2, 50 TEA-OH, 2 KOH, and 5 HEPES, adjusted to pH 7.4 with methanesulfonic acid. CP1 (DISODIUM 5-BROMO-2-[9-CHLORO-3-(SULFONATOOXY) NAPHTHO [1,2-B] THIEN-2-YL]-1H-INDOL-3-YL SULFATE, Sigma-Aldrich, MO) and Chromanol 293B (Sigma-Aldrich, MO) were dissolved in bath solutions. All the chemicals were purchased from Sigma-Aldrich. To measure the I–V relations of the Kir1.1 channel, the test voltage was set from −100 to +60 mV for 1 s with 20-mV increments. The test pulses were stepped from a holding potential of 0 mV and then stepped back to 0 mV. The HCN4 currents were recorded by a test pulse between −30 and −140 mV in 10-mV step from a holding potential of −30 mV. For all the other potassium channels and CaV1.2 channel, the holding potential was −80 or −100 mV, and the test pulse was applied with 10-mV increment, which was followed with a repolarization pulse at −40 mV before returning to the holding potential. The durations of test and the repolarization pulse vary for different channels to allow the activation and deactivation of the channel to reach their steady states.", "data": [{"smiles": "O=S(=O)([O-])Oc1c(-c2sc3c(ccc4cccc(Cl)c43)c2OS(=O)(=O)[O-])[nH]c2ccc(Br)cc12.[Na+].[Na+]", "note": "[CP1, DISODIUM 5-BROMO-2-[9-CHLORO-3-(SULFONATOOXY) NAPHTHO [1,2-B] THIEN-2-YL]-1H-INDOL-3-YL SULFATE]", "values": [{"measurement": "ΔV1/2 of G–V relations", "result": "6.85 ± 1.81", "unit": "mV"}, {"measurement": "G/Gmax Mean (Fig. 6e)", "setting": "voltage 0 mV", "result": 0.8601}, {"measurement": "G/Gmax Mean (Fig. 6e)", "setting": "voltage 10 mV", "result": 0.9576}, {"measurement": "G/Gmax Mean (Fig. 6e)", "setting": "voltage 20 mV", "result": 1.0000}, {"measurement": "G/Gmax Mean (Fig. 6e)", "setting": "voltage 30 mV", "result": 0.9916}, {"measurement": "G/Gmax Mean (Fig. 6e)", "setting": "voltage 40 mV", "result": 0.9932}, {"measurement": "G/Gmax Mean (Fig. 6e)", "setting": "voltage 50 mV", "result": 0.9886}, {"measurement": "G/Gmax Mean (Fig. 6e)", "setting": "voltage 60 mV", "result": 0.9837}, {"measurement": "G/Gmax Mean (Fig. 6e)", "setting": "voltage -10 mV", "result": 0.6448}, {"measurement": "G/Gmax Mean (Fig. 6e)", "setting": "voltage -20 mV", "result": 0.3564}, {"measurement": "G/Gmax Mean (Fig. 6e)", "setting": "voltage -30 mV", "result": 0.1368}, {"measurement": "G/Gmax Mean (Fig. 6e)", "setting": "voltage -40 mV", "result": 0.0404}, {"measurement": "G/Gmax Mean (Fig. 6e)", "setting": "voltage -50 mV", "result": 0.0144}, {"measurement": "G/Gmax Mean (Fig. 6e)", "setting": "voltage -60 mV", "result": 0.0098}, {"measurement": "G/Gmax Mean (Fig. 6e)", "setting": "voltage -70 mV", "result": 0.0091}, {"measurement": "G/Gmax Mean (Fig. 6e)", "setting": "voltage -80 mV", "result": 0.0089}, {"measurement": "G/Gmax Mean (Fig. 6e)", "setting": "voltage -90 mV", "result": 0.0084}, {"measurement": "G/Gmax Mean (Fig. 6e)", "setting": "voltage -100 mV", "result": 0.0080}, {"measurement": "G/Gmax Mean (Fig. 6e)", "setting": "voltage -110 mV", "result": 0.0069}, {"measurement": "G/Gmax Mean (Fig. 6e)", "setting": "voltage -120 mV", "result": 0.0065}]}]}
